Measured values from patent publication US6764826B2, “Inhibitors of C-reactive protein induced inflammation” (Board of Regents, The University of Texas System, priority 2000, dated 2004).
“Also recorded” adds a separate entry of the source.

What was measured:
[1] = system: human umbilical vein endothelial cells (HUVEC); test: Adhesion molecule expression in HUVEC by FACS, in the presence of serum; assay type: cell-based
Description: All experiments were performed on human umbilical vein endothelial cells (HUVEC, from Cascade Biology). HUVEC were grown in M199 medium with endothelial cell growth supplement, heparin and 15% fetal bovine serum or human serum. Cells were used at passage 2 to 4.
(§1) HUVEC were incubated with human C-reactive protein at the concentration indicated for 24 hours. Cells were detached by incubation with 10 mmol/L EDTA in PBS (without trypsin), washed with PBS buffer and suspended in PBS with 1% FBS and 0.1% sodium azide. Cell were then stained with R-Phycoerythrin labeled monoclonal antibodies (Pharmingen) against the adhesion molecules VCAM-1 (CD106) or ICAM-1 (CD54) or with Phycoerythrin labeled isotype IgG as control. For detection of E-selectin, HUVEC were incubated for 6 hours with C-reactive protein and then stained with a FITC labeled monoclonal antibody against E-selectin (RandD Systems) or the appropriate isotype control (Pasceri et al., 2000). R-Phycoerythrin labeled monoclonal antibodies (Pharmingen) against the C-reactive protein receptors FCγRI and FCγRII (Marnell et al., 1995; Bharadwaj et al., 1999) were also used.
(§2) The staining procedure was performed on ice for 30 minutes, followed by washing. The fluorescence intensity of 9000 cells for each sample was quantified by a FACS CaliburTM analyser (Becton Dickinson). All experiments were performed in triplicate.

[2] = system: human umbilical vein endothelial cells (HUVEC); test: as above; assay type: cell-based; conditions: 24-hour incubation, HUVEC with human serum
HUVEC [3] = test: RANTES secretion by HUVEC, sandwich ELISA; assay type: cell-based, human
Description: (§3) Experiments were performed in HUVEC, cultured in 12-well plates in basic endothelial cell medium CS-C, with 10 mM HEPES and 15% human serum (Sigma). Culture supernatants were collected 6-24 hours after stimulation with either IL-1β or CRP, at the concentration indicated. Secretion of MCP-1 and RANTES were assessed by sandwich ELISA (Colorimetric Quantikine, by R and D Systems). All determinations were performed in duplicate. Data were expressed as mean±SD of 5-6 separate experiments. Cell viability was assessed by staining with trypan blue.

HUVEC [4] = test: MCP-1 secretion by HUVEC, sandwich ELISA; assay type: cell-based, human
Description: as §3

[5] = system: human umbilical vein endothelial cells (HUVEC); test: Adhesion molecule expression in HUVEC by FACS, serum-free medium; assay type: cell-based
Description: as §1, with “protein similar to Example 2 except in” for “protein at”, “the absence of serum.” for “the concentration indicated for 24 hours.”, “with” for “with 1% FBS and”
as §2

MCP-1 Induction by CRP = test: Modulation of CRP effects by statin, aspirin and PPAR activators: MCP-1 secretion in HUVEC, sandwich ELISA; assay type: cell-based, human; conditions: for effect on induction of MCP-1 by CRP (in words): test substance 10 μM
Description: Experiments were performed in HUVEC. […] After 2 hours, the cells were incubated with C-reactive protein or with IL-1β 10 ng/mL for 24 hours. […] Secretion of MCP-1 and RANTES were assessed by sandwich ELISA (Colorimetric Quantikine, by R and D Systems). All determinations were performed in duplicate. Data were expressed as mean±SD of 5-6 separate experiments. Cell viability was assessed by staining with trypan blue.

[6] = CRP 100 μg/mL + test substance 10 μmol/L
[7] = CRP 100 μg/mL + test substance 100 μmol/L
[8] = CRP 100 μg/mL + test substance 50 μmol/L
[9] = CRP 100 μg/mL + test substance 200 μmol/L
[10] = Homo sapiens, HUVEC, CRP 100 μg/mL + test substance 100 μmol/L
[11] = CRP 100 μg/mL + test substance 20 μmol/L
[12] = CRP 100 μg/mL + test substance 1 mmol/L
[13] = C-reactive protein 10 μg/mL, 24-hour incubation, HUVEC with human serum

Molecule: interleukin-1: Interleukin-1 provided by RandD systems; a well known activator of endothelial cells
- induction of adhesion molecules expression compared with C-reactive protein 10 μg/mL ([1]; interleukin-1 10 ng/mL, same time-intervals (24-hour; 6-hour for E-selectin), HUVEC with human serum): similar
- E-selectin expression [2]: no increase
- RANTES expression (HUVEC [3]; Interleukin-1β 10 ng/mL): did not induce
- MCP-1 response in absence of serum (HUVEC [4]; IL-1β, serum-free medium): absence of serum did not change the response
- MCP-1 concentration (HUVEC [4]; Interleukin-1β 10 ng/mL, 15% human serum): 8.6 ± 3.7 ng/mL
- expression of adhesion molecules ([5]; interleukin-1, serum-free medium): able to induce adhesion molecules

Molecule: CCCCC/C=C/C=C1/C(=O)C=C[C@@H]1C/C=C\CCCC(=O)O [15d-PGJ2, 15-deoxy-^Δ12,14-prostaglandin J2]
- % of Maximal Response (MCP-1 Induction by CRP; [6]): 24%
- -Fold Increase in MCP-1 conc. (MCP-1 Induction by CRP; [6]): 1.5 ± 0.6 -Fold
- MCP-1 conc. (MCP-1 Induction by CRP; [6]): 3.4 ± 1.6 ng/mL
- effect on induction of MCP-1 by CRP (in words) (MCP-1 Induction by CRP): almost completely abolished

Molecule: Cc1cccc(Nc2cc(Cl)nc(SCC(=O)O)n2)c1C [Wy 14649]
- % of Maximal Response (MCP-1 Induction by CRP; [6]): 101%
- -Fold Increase in MCP-1 conc. (MCP-1 Induction by CRP; [6]): 6.4 ± 2.1 -Fold
- MCP-1 conc. (MCP-1 Induction by CRP; [6]): 13.9 ± 6.0 ng/mL
- % of Maximal Response (MCP-1 Induction by CRP; [7]): 30%
- -Fold Increase in MCP-1 conc. (MCP-1 Induction by CRP; [7]): 1.9 ± 0.9 -Fold
- MCP-1 conc. (MCP-1 Induction by CRP; [7]): 4.2 ± 2.2 ng/mL
- effect on induction of MCP-1 by CRP (in words) (MCP-1 Induction by CRP): no effect
- effect on secretion of MCP-1 induced by CRP (in words) (MCP-1 Induction by CRP; test substance 100 μM): completely inhibited

Molecule: CC1(COc2ccc(CC3SC(=O)NC3=O)cc2)CCCCC1 (stereo not shown) [ciglitazone]
- -Fold Increase in MCP-1 conc. (MCP-1 Induction by CRP; [8]): 4.8 ± 1.5 -Fold
- MCP-1 conc. (MCP-1 Induction by CRP; [8]): 10.2 ± 4.6 ng/mL
- -Fold Increase in MCP-1 conc. (MCP-1 Induction by CRP; [7]): 4.1 ± 1.0 -Fold
- MCP-1 conc. (MCP-1 Induction by CRP; [7]): 8.7 ± 3.4 ng/mL
- -Fold Increase in MCP-1 conc. (MCP-1 Induction by CRP; [9]): 2.7 ± 0.8 -Fold
- MCP-1 conc. (MCP-1 Induction by CRP; [9]): 5.9 ± 2.5 ng/mL
- MCP-1 secretion, % of maximal CRP-induced response at 50 µM (MCP-1 Induction by CRP; Homo sapiens, HUVEC, CRP 100 μg/mL + test substance 50 μmol/L): 74%
- MCP-1 secretion, % of maximal CRP-induced response at 100 µM (MCP-1 Induction by CRP; [10]): 65%
- MCP-1 secretion, % of maximal CRP-induced response at 200 µM (MCP-1 Induction by CRP; Homo sapiens, HUVEC, CRP 100 μg/mL + test substance 200 μmol/L): 42%

Molecule: Cc1c(C)c2c(c(C)c1O)CCC(C)(COc1ccc(CC3SC(=O)NC3=O)cc1)O2 (stereo not shown) [troglitazone]
- -Fold Increase in MCP-1 conc. (MCP-1 Induction by CRP; [11]): 5.2 ± 1.7 -Fold
- MCP-1 conc. (MCP-1 Induction by CRP; [11]): 11.4 ± 5.2 ng/mL
- MCP-1 secretion, % of maximal CRP-induced response at 20 µM (MCP-1 Induction by CRP; Homo sapiens, HUVEC, CRP 100 μg/mL + test substance 20 μmol/L): 83%

Molecule: CC(=O)Oc1ccccc1C(=O)O [aspirin]
- -Fold Increase in MCP-1 conc. (MCP-1 Induction by CRP; [7]): 6.7 ± 1.9 -Fold
- MCP-1 conc. (MCP-1 Induction by CRP; [7]): 14.6 ± 6.7 ng/mL
- -Fold Increase in MCP-1 conc. (MCP-1 Induction by CRP; [12]): 6.4 ± 1.8 -Fold
- MCP-1 conc. (MCP-1 Induction by CRP; [12]): 13.7 ± 6.7 ng/mL
- MCP-1 secretion, % of maximal CRP-induced response at 100 µM (MCP-1 Induction by CRP; [10]): 104%
- MCP-1 secretion, % of maximal CRP-induced response at 1000 µM (MCP-1 Induction by CRP; Homo sapiens, HUVEC, CRP 100 μg/mL + test substance 1 mmol/L): 102%
- effect on the effects of C-reactive protein (MCP-1 induction, in words) (MCP-1 Induction by CRP; high concentration, up to 1 mM): did not inhibit

Molecule: CC(C)OC(=O)C(C)(C)Oc1ccc(C(=O)c2ccc(Cl)cc2)cc1 [fenofibrate]
- -Fold Increase in MCP-1 conc. (MCP-1 Induction by CRP; [7]): 0.9 ± 0.2 -Fold
- MCP-1 conc. (MCP-1 Induction by CRP; [7]): 2.1 ± 0.6 ng/mL
- MCP-1 secretion, % of maximal CRP-induced response at 100 µM (MCP-1 Induction by CRP; [10]): 15%

B1: CRP: Recombinant human C-reactive protein purchased from Biochem; acute phase reactant protein (protein, UniProt P02741 19-224, looked up)
C-reactive protein: QTDMSRKAFVFPKESDTSYVSLKAPLTKPLKAFTVCLHFYTELSSTRGYSIFSYATKRQDNEILIFWSKDIGYSFTVGGSEILFEVPEVTVAPVHICTSWESASGIVEFWVDGKPRVRKSLKKGYTVGAEASIILGQEQDSFGGNFEGSQSLVGDIGNVNMWDFVLSPDEINTIYLGGPFSPNVLNWRALKYEVQGEVFTKPQLWP
- E-selectin expression ([1]; C-reactive protein 10 μg/mL, 6-hour incubation, HUVEC with human serum): significant increase
- ICAM-1 expression [1, 13]: large increase
- VCAM-1 expression [1, 13]: significant increase
- VCAM-1 expression ([1]; C-reactive protein 10 μg/mL, 24-hour incubation, HUVEC with human serum, listed as recombinant C-reactive protein): large increase
- further increase in adhesion molecules expression on increase of concentration ([1]; C-reactive protein up to 100 μg/mL, compared with 10 μg/mL, 4th passage cells, 15% human serum): only a modest further increase
- further adhesion molecules induction on increase of concentration ([1]; C-reactive protein up to 200 μg/mL, compared with 10 μg/mL): only a modest further adhesion molecules induction
- C-reactive protein concentration at which adhesion molecule expression is nearly maximum ([1]; dose response, HUVEC with 15% human serum): 10 µg/mL
- E-selectin expression [2]: no increase
- % of Maximal Response (MCP-1 Induction by CRP; CRP 100 μg/mL alone, 24 hours): 100%
- -Fold Increase in MCP-1 conc. (MCP-1 Induction by CRP; CRP 100 μg/mL alone, 24 hours): 6.3 ± 1.8 -Fold
- MCP-1 conc. (MCP-1 Induction by CRP; CRP 100 μg/mL alone, 24 hours): 13.6 ± 5.4 ng/mL
- Secretion of RANTES (HUVEC [3]; C-reactive protein 100 μg/mL, 15% human serum): not increased
- CRP concentration already giving significant induction of MCP-1 (HUVEC [4]; 24-hour incubation, 15% human serum): 5 µg/mL
- MCP-1 concentration (HUVEC [4]; CRP 10 μg/mL, 24-hour incubation, 15% human serum, baseline 1.1±0.5): 2.4 ± 0.9 ng/mL
- MCP-1 concentration (HUVEC [4]; CRP 100 μg/mL (peak), 24-hour incubation, 15% human serum): 9.7 ± 4.8 ng/mL
- MCP-1 concentrations (HUVEC [4]; CRP 100 μg/mL, 24-hour, serum-free medium): did not induce a significant increase
- fold-increase of MCP-1 secretion (HUVEC [4]; CRP 100 μg/mL, 24-hour, versus human albumin 100 μg/mL, 15% human serum): 7 fold-increase
- expression of adhesion molecules (ICAM-1, VCAM-1, E-selectin) ([5]; C-reactive protein 100 μg/mL, 24-hour (6-hour for E-selectin), serum-free medium): could not induce; also recorded: did not induce
